From publication PMC7249006, “Discovery of Novel Pyridazine-Based Cyclooxygenase-2 Inhibitors with a Promising Gastric Safety Profile” (Molecules, 2020)
“Also recorded” adds a separate entry of the source.

Legend:
[1] = system: gastric mucosa; assay: Lipid peroxidation studies (MDA content of gastric mucosa, TBA method); settings: gastric mucosa after the ulcerogenic activity test, 10 mg/kg orally
Description: A decrease in the MDA content is a measure to assess the non-ulcerogenic effect of a compound.
The obtained mixture was extracted with a 5-mL mixture (15:1 v/v) of n-butanol and pyridine and centrifuged at 4000 rpm for 10 min. […] A standard linear curve (absorbance vs. concentration in nM) was prepared using MDA tetrabutylammonium salt. The lipid peroxidation was calculated from the standard curve. The results are expressed as nmol MDA 100 mg^−1 tissues.

[2] = biological target: T1, (Ovis aries, UniProt P05979); assay: In vitro COX-1 inhibition assay (Cayman kit 560131, ELISA); format: biochemical, human; settings: N = 3, Mean ± SD
T1 construct: purchased Cayman Chemicals 560131
T1 sequence (P05979 25-600): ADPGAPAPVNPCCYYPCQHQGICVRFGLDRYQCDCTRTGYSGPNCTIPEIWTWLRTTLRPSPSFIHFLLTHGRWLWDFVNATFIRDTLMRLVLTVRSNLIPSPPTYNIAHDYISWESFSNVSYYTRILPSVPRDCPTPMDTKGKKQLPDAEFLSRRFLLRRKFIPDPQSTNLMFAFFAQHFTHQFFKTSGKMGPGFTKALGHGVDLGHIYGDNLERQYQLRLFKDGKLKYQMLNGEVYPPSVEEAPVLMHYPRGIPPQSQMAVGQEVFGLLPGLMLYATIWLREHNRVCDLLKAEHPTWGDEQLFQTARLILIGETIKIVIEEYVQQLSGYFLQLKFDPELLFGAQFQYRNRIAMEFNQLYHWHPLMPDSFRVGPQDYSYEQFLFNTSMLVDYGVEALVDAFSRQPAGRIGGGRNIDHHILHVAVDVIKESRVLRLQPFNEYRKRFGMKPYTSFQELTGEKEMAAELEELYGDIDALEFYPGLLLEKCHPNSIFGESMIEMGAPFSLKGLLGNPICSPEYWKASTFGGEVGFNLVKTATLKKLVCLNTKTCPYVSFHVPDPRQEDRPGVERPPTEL
Description: (§1) The supplier’s instructions were followed to prepare the reagents as well as to perform the experiment. Briefly, samples (20 μL), the COX-1 and COX-2 enzyme (10 μL), and heme (10 μL) were mixed with the buffer solution (160 μL), which was supplied with the kits. […] A saturated solution of stannous chloride (30 μL) was added after 2 min to halt the COX reaction. The resultant mixture was incubated at ambient temperature for 5 min. The Prostaglandin-2α (PGF2α) developed after the COX reaction was measured through ELISA. […] The plate was washed to get rid of the unbound components. […] The IC50 values of COX-1 and COX-2 were determined by the regression analysis.

[3] = biological target: T2, human COX-2 (Homo sapiens, UniProt P35354); assay: In vitro COX-2 inhibition assay (Cayman kit 560131, ELISA); format: biochemical; settings: for SI (Selectivity index): IC50 for COX-1/IC50 for COX-2; for IC50: N = 3, Mean ± SD; for %SI: selectivity index normalized to celecoxib = 100%
T2 construct: purchased Cayman Chemicals 560131
T2 sequence (P35354 18-604): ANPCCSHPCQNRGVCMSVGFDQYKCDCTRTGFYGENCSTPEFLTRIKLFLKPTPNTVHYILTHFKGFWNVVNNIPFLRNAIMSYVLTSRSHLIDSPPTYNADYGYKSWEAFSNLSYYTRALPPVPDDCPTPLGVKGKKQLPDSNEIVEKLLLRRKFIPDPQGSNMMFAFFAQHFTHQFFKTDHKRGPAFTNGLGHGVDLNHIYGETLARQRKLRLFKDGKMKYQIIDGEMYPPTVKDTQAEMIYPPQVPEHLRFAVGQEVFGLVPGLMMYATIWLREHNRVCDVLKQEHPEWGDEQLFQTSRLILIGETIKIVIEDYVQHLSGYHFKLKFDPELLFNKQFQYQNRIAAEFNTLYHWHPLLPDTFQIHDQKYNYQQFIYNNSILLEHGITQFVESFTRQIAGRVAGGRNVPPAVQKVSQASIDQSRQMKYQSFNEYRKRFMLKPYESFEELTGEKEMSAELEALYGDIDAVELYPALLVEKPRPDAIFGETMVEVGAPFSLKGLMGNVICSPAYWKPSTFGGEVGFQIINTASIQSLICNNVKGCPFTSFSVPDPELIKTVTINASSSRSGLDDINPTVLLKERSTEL
Description: as §1

[4] = system: gastric ulcers in rats; assay: Gastric ulcerogenic activity; settings: 10 mg/kg orally; for ulcerogenic effect (in words): rats; for Score: No of Gastric Ulcers / Score: Severity Lesions: rats fasted 18 h, sacrificed after 4 h, Mean ± SE
Description: A total of eight groups of rats were utilized, wherein each group comprised of six rats.
The eight groups of rats were fasted for 18 h, wherein each group consisted of 6 rats. […] Saline solution (1 mL) was given to the control group. The animals were sacrificed after 4 h to isolate their stomachs. A longitudinal cut was made along the greater curvature, and the presence of ulcers was evaluated. The counting of ulcers was marked as 0 (no ulcer) to 5 (≥ 3 ulcers) [30].

| SMILES | MDA Content in nmol (100 mg Tissue) [1] | IC50 [2] | SI (Selectivity index) [3] | IC50 [3] | %SI [3] | melting point | ulcerogenic effect (in words) [4] | Score: No of Gastric Ulcers [4] | Score: Severity Lesions [4] |
| --- | --- | --- | --- | --- | --- | --- | --- | --- | --- |
| Cc1ccc(-c2cc(C(F)(F)F)nn2-c2ccc(S(N)(=O)=O)cc2)cc1 [Celecoxib, celecoxib, reference compound] | 6.11 ± 0.50 nmol (100 mg Tissue) |  |  |  |  |  |  |  |  |
| NN=Cc1ccc(-n2nc(-c3ccccc3)ccc2=O)cc1 [Compound 4a, 2-(4-(Hydrazineylidenemethyl)phenyl)-6-phenylpyridazin-3(2H)-one] |  | 235 ± 0.11 nM | 8.97 | 26.2 ± 0.5 nM | 49.88% | 235 to 236 °C |  |  |  |
| O=C1CSC(NN=Cc2ccc(-n3nc(-c4ccccc4)ccc3=O)cc2)=N1 [Compound 6a, 2-(2-(4-(6-Oxo-3-phenylpyridazin-1(6H)-yl)benzylidene)hydrazineyl)thiazol-4(5H)-one] |  | 260 ± 0.22 nM | 10.35 | 25.1 ± 0.15 nM | 57.56% | 250 to 252 °C |  |  |  |
| CC1SC(NN=Cc2ccc(-n3nc(-c4ccccc4)ccc3=O)cc2)=NC1=O (stereo not drawn) [Compound 6b, 5-Methyl-2-(2-(4-(6-oxo-3-phenylpyridazin-1(6H)-yl)benzylidene)hydrazineyl)thiazol-4(5H)-one] |  | 280 ± 0.5 nM | 12.30 | 22.75 ± 0.1 nM | 68.40% | 285 to 286 °C |  |  |  |
| CCOC(=O)c1sc(N/N=C/c2ccc(-n3nc(-c4ccccc4)ccc3=O)cc2)nc1C [Compound 8, Ethyl 4-methyl-2-(2-(4-(6-oxo-3-phenylpyridazin-1(6H)-yl)benzylidene)hydrazineyl) thiazole-5-carboxylate] |  | 250 ± 0.12 nM | 10.33 | 24.18 ± 0.14 nM | 57.45% | 245 to 246 °C |  |  |  |
| O=c1ccc(-c2ccccc2)nn1-c1ccc(C=NNc2nc(-c3ccccc3)cs2)cc1 [Compound 9a, 6-Phenyl-2-(4-((2-(4-phenylthiazol-2-yl)hydrazinylidene)methyl)phenyl)pyridazin-3(2H)-one] | 3.05 ± 0.12 nmol (100 mg Tissue) | 330 ± 0.28 nM |  | 15.5 ± 0.55 nM |  | 280 to 281 °C | No ulcerogenic effects; also recorded: did not produce any ulcerogenic impact; also recorded: devoid of any ulcerogenic effect | 0 | 0 |
| O=c1ccc(-c2ccccc2)nn1-c1ccc(C=NNc2nc(-c3ccc(Br)cc3)cs2)cc1 [Compound 9b, 2-(4-((2-(4-(4-Bromophenyl)thiazol-2-yl)hydrazineylidene)methyl)phenyl)-6-phenylpyridazin-3(2H)-one] | 3.89 ± 0.50 nmol (100 mg Tissue) | 275 ± 0.42 nM |  | 17.5 ± 0.6 nM |  | 261 to 262 °C | insignificant ulcerogenic effects | 0.33 ± 0.38 | 0.26 ± 0.16 |
| COC(=O)C=C1SC(=NN=Cc2ccc(-n3nc(-c4ccccc4)ccc3=O)cc2)NC1=O [Compound 10, Methyl2-(4-oxo-2-((4-(6-oxo-3-phenylpyridazin-1(6H)-yl)benzylidene)hydrazineylidene) -thiazolidin-5-ylidene)acetate] |  | 285 ± 0.15 nM | 12.89 | 22.1 ± 0.55 nM | 71.69% |  |  |  |  |
| CN(C)C=C1SC(NN=Cc2ccc(-n3nc(-c4ccccc4)ccc3=O)cc2)=NC1=O [Compound 11, 5-((dimethylamino)methylene)-2-(2-(4-(6-oxo-3-phenylpyridazin-1(6H)-yl)benzylidene) hydrazineyl) thiazol-4(5H)-one] |  | 270 ± 0.24 nM | 10.75 | 25.11 ± 0.11 nM | 59.78% |  |  |  |  |
| O=C1N=C(NN=Cc2ccc(-n3nc(-c4ccccc4)ccc3=O)cc2)SC1=C1C(=O)Nc2ccccc21 [Compound 12, 2-(2-(4-(6-oxo-3-phenylpyridazin-1(6H)-yl)benzylidene)hydrazineyl)-5-(2-oxoindolin-3-ylidene) thiazol-4(5H)-one] | 2.95 ± 0.44 nmol (100 mg Tissue) | 295 ± 0.28 nM |  | 17.1 ± 0.19 nM |  |  | No ulcerogenic effects; also recorded: did not produce any ulcerogenic impact; also recorded: devoid of any ulcerogenic effect | 0 | 0 |
| O=C1N=C(N/N=C/c2ccc(-n3nc(-c4ccccc4)ccc3=O)cc2)S/C1=C\c1ccc(Cl)cc1 [Compound 16a, 5-(4-Chlorobenzylidene)-2-(2-(4-(6-oxo-3-phenylpyridazin-1(6H)-yl)benzylidene)-hydra-zinyl)thiazol-4(5H)-one] |  | 275 ± 0.1 nM | 12.40 | 22.2 ± 0.44 nM | 68.96% | 297 to 298 °C |  |  |  |
| COc1ccc(/C=C2\SC(N/N=C/c3ccc(-n4nc(-c5ccccc5)ccc4=O)cc3)=NC2=O)cc1 [Compound 16b, 5-(4-Methoxybenzylidene)-2-(2-(4-(6-oxo-3-phenylpyridazin-1(6H)-yl)benzylidene)hydra-zineyl)thiazol-4(5H)-one] | 3.45 ± 0.28 nmol (100 mg Tissue) | 315 ± 0.33 nM |  | 16.9 ± 0.16 nM |  | > 300 °C | insignificant ulcerogenic effects | 0.12 ± 0.30 | 0.18 ± 0.22 |
| O=C1CSC(=NN=Cc2ccc(-n3nc(-c4ccccc4)ccc3=O)cc2)N1c1ccccc1 [Compound 17, 2-((4-(6-oxo-3-phenylpyridazin-1(6H)-yl)benzylidene)hydrazineylidene)-3-phenyl thiazolidin-4-one] | 4.11 ± 0.18 nmol (100 mg Tissue) | 285 ± 0.16 nM |  | 17.7 ± 0.18 nM |  |  | insignificant ulcerogenic effects | 0.42 ± 0.10 | 0.20 ± 0.50 |
| COC(=O)C=C1SC(=NN=Cc2ccc(-n3nc(-c4ccccc4)ccc3=O)cc2)N(c2ccccc2)C1=O [Compound 18, Methyl2-(4-oxo-2-((4-(6-oxo-3-phenylpyridazin-1(6H)-yl)benzylidene)hydrazinylidene) -3-phenylthiazolidin-5-ylidene)acetate] |  | 255 ± 0.2 nM | 11.01 | 23.1 ± 0.5 nM | 61.23% |  |  |  |  |
| COc1ccc2c(c1)c(CC(=O)O)c(C)n2C(=O)c1ccc(Cl)cc1 [Indomethacin, indomethacin, reference compound] | 8.90 ± 0.18 nmol (100 mg Tissue) |  |  |  |  |  |  |  |  |
